# In US6890885B2, “Herbicidal composition” (priority 2000, dated 2005):
# “And” between values parts separate entries of the source, which are not always exact repeats. Equal entries are not always repeated.
# Key:
# Format in all cases: in vivo
# [1] = test system: Monocotyledonous and dicotyledonous test plants; experiment: Pre-emergence test: herbicidal action (% action) of single active ingredients and mixtures, with expected action We according to Colby; details: for herbicidal action (% action): evaluated after 36 days
# From the text: (§1) The herbicidal action to be expected We for a given combination of two herbicides can be calculated as follows (see COLBY, S. R., “Calculating synergistic and antagonistic response of herbicide combinations”, Weeds 15, pages 20-22,1967):
# (§2) When the action actually observed is greater than the value to be expected We, there is a synergistic effect.
# Experiment Description—Pre-emergence Test
# Monocotyledonous and dicotyledonous test plants are sown in standard soil in plastics pots. Directly after sowing, the test substances are applied in aqueous suspension by spraying (500 liters of water/ha). The rates of application depend on the optimum doses ascertained under field conditions and greenhouse conditions. The test plants are then grown on in the greenhouse under optimum conditions. The tests are evaluated after 36 days (% action, 100%=plant has died, 0%=no phytotoxic action).
# In the following Tables, evaluation is carried out after 14 days:
# In the following Tables, evaluation is carried out after 31 days: […]
# test plants = experiment: Post-emergence test: herbicidal action (% action) of the herbicide on its own and as a mixture, with expected action We according to Colby
# From the text: A synergistic effect exists whenever the action of the active ingredient combination of compounds of formula 1 and 2.1 to 2.51 is greater than the sum of the actions of the active ingredients applied separately.
# as §1
# • X=percentage herbicidal action on treatment with the compound of formula I at a rate of application of p kg per hectare, compared with the untreated control (=0%). • Y=percentage herbicidal action on treatment with a compound of formula 2.1 to 2.51 at a rate of application of q kg per hectare, compared with the untreated control. • We=expected herbicidal action (percentage herbicidal action compared with the untreated control) following treatment with the compounds of formulae 1 and 2.1 to 2.51 at a rate of application of p+q kg of active ingredient per hectare.
# as §2
# Experiment Description—Post-emergence Test
# The test plants are grown to the 2- to 3-leaf stage in plastics pots under greenhouse conditions. A standard soil is used as cultivation substrate. At the 2- to 3-leaf stage, the herbicide is applied to the test plants on its own and as a mixture. The application is carried out using an aqueous suspension of the test substances in 500 liters of water/ha. The rates of application depend on the optimum doses ascertained under field conditions and greenhouse conditions. The tests are evaluated after 33 days (% action, 100%=plant has died, 0%=no phytotoxic action).
# Mixture A contains as active ingredients 915 g/liter of the compound of formula 2.2a and 45 g/liter of the compound of formula 3.1.
# In the following Tables, evaluation is carried out after 21 days: […]
# [2] = test system: crop plants, e.g. maize and cereals; experiment: Safening action: phytotoxic action of the herbicides on crop plants with and without safener; details: 50 g/ha herbicide alone, applied at 4-leaf stage, 4 weeks after application
# Procedure: Biological Example: Safening Action
# The test plants are grown in plastics pots under greenhouse conditions to the 4-leaf stage. At that stage, the herbicides alone, and the mixtures of the herbicides with the test compounds that are to be tested as safeners, are applied to the test plants. The application is in the form of an aqueous suspension of the test compounds prepared from a 25% wettable powder (Example F3, b)) with 500 liters of water/ha. 4 weeks after application, the phytotoxic action of the herbicides on the crop plants, e.g. maize and cereals, is evaluated using a percentage scale. 100% denotes that the test plant has died, 0% denotes no phytotoxic action.
# The same results are obtained when the mixtures are formulated in accordance with Examples F1, F2 and F4 to F8.
smiles,measurement,setting,value
"CCC(CC)Nc1c([N+](=O)[O-])cc(C)c(C)c1[N+](=O)[O-] [Compound 2.18, pendimethalin, reference compound]",herbicidal action,"[1]; Polygonum, 500 g/ha, after 14 days",80%
"CCc1cccc(C)c1N(COCCl)C(C)COC (centres unmarked) [Compound 2.2.b, reference compound]",herbicidal action,"[1]; Chenopodium, 300 g/ha, after 14 days",0%
same,herbicidal action,"[1]; Cyperus, 300 g/ha, after 14 days",0%
same,herbicidal action,"[1]; Solanum, 300 g/ha, after 14 days",40%
"COc1c(Cl)ccc(Cl)c1C(=O)O [Compound 2.19, dicamba, reference compound]",herbicidal action,test plants; in vivo,60%
"COC(=O)CSc1cc(/N=c2\sc(=O)n3n2CCCC3)c(F)cc1Cl [Compound 2.25, fluthiacet-methyl, reference compound]",herbicidal action,"test plants; Ipomoea, 2 g/ha, post-emergence, after 21 days",0%
same,herbicidal action,"test plants; Polygonum, 2 g/ha, post-emergence, after 21 days",0%
"O=C(O)CNCP(=O)(O)O [Compound 2.33, sulfosate, reference compound]",herbicidal action,"test plants; Polygonum, 360 g/ha, post-emergence, after 21 days (Table B32)",0%
"O=C(O)CNCP(=O)(O)O [Compound 2.16, glyphosate, reference compound]",herbicidal action,test plants; in vivo,20% and 10%
"Cc1nc(C(F)(F)F)ccc1C(=O)C1=C(O)C2CCC(C2)C1=O (centres unmarked) [Compound 1.001, 4-hydroxy-3-(2-methyl-6-trifluoromethyl-pyridine-3-carbonyl)-bicyclo[3.2.1]oct-3-en-2-one]",phytotoxic action,[2]; Abutilon,100%
same,phytotoxic action,[2]; Maize,50%
same,phytotoxic action,[2]; Setaria,100%
same,herbicidal action,"[1]; Amaranthus, 6 g/ha, after 23 days",10%
same,herbicidal action,"[1]; Chenopodium, 6 g/ha, after 23 days (Table B37)",50%
same,herbicidal action,"[1]; Chenopodium, 6 g/ha, after 23 days (Table B38)",50%
same,herbicidal action,"[1]; Chenopodium, 12.5 g/ha, after 14 days (Table B19)",80%
same,herbicidal action,"[1]; Chenopodium, 12.5 g/ha, after 14 days (Table B20)",80%
same,herbicidal action,"[1]; Chenopodium, 25 g/ha, after 14 days",80%
same,herbicidal action (% action),"[1]; Chenopodium, Compd. 1.001 6.25 g/ha",0%
same,herbicidal action (% action),"[1]; Chenopodium, Compd. 1.001 12.5 g/ha",0%
same,herbicidal action (% action),"[1]; Chenopodium, Compd. 1.001 25 g/ha",0%
same,herbicidal action,"[1]; Cyperus, 12.5 g/ha, after 14 days (Table B19)",0%
same,herbicidal action,"[1]; Cyperus, 12.5 g/ha, after 14 days (Table B20)",0%
same,herbicidal action,"[1]; Cyperus, 25 g/ha, after 14 days (Table B18)",0%
same,herbicidal action,"[1]; Cyperus, 25 g/ha, after 14 days (Table B22)",10%
same,herbicidal action,"[1]; Ipomoea, 25 g/ha, after 31 days (Table B25)",70%
same,herbicidal action,"[1]; Ipomoea, 25 g/ha, after 31 days (Table B26)",70%
same,herbicidal action,"[1]; Ipomoea, 25 g/ha, after 31 days (Table B27)",70%
same,herbicidal action (% action),"[1]; Ipomoea, Compd. 1.001 6.25 g/ha",0%
same,herbicidal action (% action),"[1]; Ipomoea, Compd. 1.001 12.5 g/ha",0%
same,herbicidal action (% action),"[1]; Ipomoea, Compd. 1.001 25 g/ha",30%
same,herbicidal action,"[1]; Polygonum, 25 g/ha, after 31 days (Table B23)",0%
same,herbicidal action,"[1]; Polygonum, 25 g/ha, after 31 days (Table B24)",0%
same,herbicidal action,"[1]; Polygonum, 50 g/ha, after 31 days",0%
same,herbicidal action (% action),"[1]; Sida, Compd. 1.001 6.25 g/ha",0%
same,herbicidal action (% action),"[1]; Sida, Compd. 1.001 12.5 g/ha",0%
same,herbicidal action (% action),"[1]; Sida, Compd. 1.001 25 g/ha",0%
same,herbicidal action,"[1]; Solanum, 12.5 g/ha, after 14 days (Table B19)",75%
same,herbicidal action,"[1]; Solanum, 12.5 g/ha, after 14 days (Table B20)",75%
same,herbicidal action,"[1]; Solanum, 12.5 g/ha, after 14 days (Table B21)",75%
same,herbicidal action,"[1]; Solanum, 25 g/ha, after 14 days",80%
same,herbicidal action (% action),"[1]; Sorghum, Compd. 1.001 6.25 g/ha",0%
same,herbicidal action (% action),"[1]; Sorghum, Compd. 1.001 12.5 g/ha",0%
same,herbicidal action (% action),"[1]; Sorghum, Compd. 1.001 25 g/ha",30%
same,herbicidal action,"[1]; Xanthium, 25 g/ha, after 31 days (Table B25)",80%
same,herbicidal action,"[1]; Xanthium, 25 g/ha, after 31 days (Table B26)",80%
same,herbicidal action,"[1]; Xanthium, 25 g/ha, after 31 days (Table B27)",80%
same,herbicidal action,"test plants; Ipomoea, 6.25 g/ha, post-emergence, after 33 days",0%
same,herbicidal action,"test plants; Ipomoea, 6.25 g/ha, post-emergence, after 33 days (Table B10)",0%
same,herbicidal action,"test plants; Ipomoea, 12.5 g/ha, post-emergence, after 21 days",30%
same,herbicidal action,"test plants; Ipomoea, 12.5 g/ha, post-emergence, after 33 days",0%
same,herbicidal action,"test plants; Ipomoea, 12.5 g/ha, post-emergence, after 33 days (Table B8)",0%
same,herbicidal action,"test plants; Ipomoea, 25 g/ha, post-emergence, after 21 days (Table B29)",30%
same,herbicidal action,"test plants; Ipomoea, 25 g/ha, post-emergence, after 21 days (Table B30)",30%
same,herbicidal action,"test plants; Ipomoea, 25 g/ha, post-emergence, after 21 days (Table B31)",30%
same,herbicidal action,"test plants; Ipomoea, 25 g/ha, post-emergence, after 21 days (Table B33)",30%
same,herbicidal action,"test plants; Polygonum, 6.25 g/ha, post-emergence, after 33 days",0%
same,herbicidal action,"test plants; Polygonum, 6.25 g/ha, post-emergence, after 33 days (Table B10)",0%
same,herbicidal action,"test plants; Polygonum, 12.5 g/ha, post-emergence, after 21 days (Table B32)",30%
same,herbicidal action,"test plants; Polygonum, 12.5 g/ha, post-emergence, after 21 days (Table B34)",30%
same,herbicidal action,"test plants; Polygonum, 12.5 g/ha, post-emergence, after 21 days (Table B35)",30%
same,herbicidal action,"test plants; Polygonum, 12.5 g/ha, post-emergence, after 33 days",0%
same,herbicidal action,"test plants; Polygonum, 12.5 g/ha, post-emergence, after 33 days (Table B8)",0%
same,herbicidal action,"test plants; Polygonum, 25 g/ha, post-emergence, after 21 days (Table B29)",75%
same,herbicidal action,"test plants; Polygonum, 25 g/ha, post-emergence, after 21 days (Table B31)",75%
same,herbicidal action,"test plants; Polygonum, 25 g/ha, post-emergence, after 21 days (Table B36)",75%
same,herbicidal action,"test plants; Xanthium, 6.25 g/ha, post-emergence, after 33 days",70%
same,herbicidal action,"test plants; Xanthium, 6.25 g/ha, post-emergence, after 33 days (Table B10)",70%
same,herbicidal action,"test plants; Xanthium, 12.5 g/ha, post-emergence, after 33 days",80%
same,herbicidal action,"test plants; Xanthium, 12.5 g/ha, post-emergence, after 33 days (Table B8)",80%
same,herbicidal action,"test plants; Xanthium, 25 g/ha, post-emergence, after 21 days",90%
"CC(C)N(C(=O)COc1nnc(C(F)(F)F)s1)c1ccc(F)cc1 [Compound 2.30, fluthiamid, reference compound]",herbicidal action,"[1]; Cyperus, 100 g/ha, after 14 days (Table B22)",0%
same,herbicidal action,"[1]; Polygonum, 60 g/ha, after 14 days (Table B15)",30%
"CSc1nnc(C(C)(C)C)c(=O)n1N [Compound 2.14, metribuzin, reference compound]",herbicidal action,"[1]; Ipomoea, 125 g/ha, after 31 days",0%
same,herbicidal action,"[1]; Polygonum, 125 g/ha, after 14 days (Table B13)",30%
same,herbicidal action,"[1]; Polygonum, 250 g/ha, after 14 days",50%
same,herbicidal action,"[1]; Xanthium, 125 g/ha, after 31 days",20%
